Data: patent publication US20090197932A1, “IMIDAZOLINYLMETHYL ARYL SULFONAMIDE” (priority 2008, published 2009)

Tests used:
alpha-1A adrenoceptors = target: T1, alpha-1A adrenoceptors (Homo sapiens, UniProt P35348); assay: alpha-1A adrenoceptor partial agonist activity (intrinsic activity and pEC50)
T1 sequence (P35348 1-466): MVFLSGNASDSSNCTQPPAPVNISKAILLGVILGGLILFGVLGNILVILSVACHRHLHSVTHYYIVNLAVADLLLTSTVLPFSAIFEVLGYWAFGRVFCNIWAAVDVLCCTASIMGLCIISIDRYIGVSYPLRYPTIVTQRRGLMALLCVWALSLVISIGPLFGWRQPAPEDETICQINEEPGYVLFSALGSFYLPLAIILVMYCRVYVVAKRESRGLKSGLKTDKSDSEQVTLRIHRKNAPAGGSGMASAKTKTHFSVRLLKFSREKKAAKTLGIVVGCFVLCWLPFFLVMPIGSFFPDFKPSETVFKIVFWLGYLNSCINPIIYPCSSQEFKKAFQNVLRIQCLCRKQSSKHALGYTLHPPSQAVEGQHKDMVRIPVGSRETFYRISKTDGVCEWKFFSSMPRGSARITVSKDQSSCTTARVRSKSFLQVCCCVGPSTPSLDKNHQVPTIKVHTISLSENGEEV

[1] = system: Female, Dutch Belted rabbits; assay: Anesthetized rabbit model: change in IUP and MAP, slope of IUP response; type: in vivo; details: i.v.
Experimental: In general, IUP is the intraurethral pressure and is measured as the 2 minute mean from the first peak of the urethral response (FIG. 1). MAP is the mean arterial blood pressure and is measured as the average blood pressure during the 2 minute section where IUP is measured. The durability is the slope of the IUP response in mmHg/min and is calculated immediately after the 2 minute IUP response for 5 minutes (2-7 minutes post the first peak) for the top 3 doses.
Surgery: Female, Dutch Belted rabbits (1.20-2.0 kg, Myrtle's Rabbitry, Tenn.) were anesthetized with isoflurane (3.0% at 2 to 4 L/min) and urethane (1.5 grams/kg, s.c.). In preparation for surgery, the rabbits were shaved, scrubbed (i.e., perineal area, ventral neck, and ventral, caudal surface of the abdomen) and were administered Ringers Lactate Solution (s.c.) to maintain fluids. […]
Experiment: The arterial cannula was connected to a P23XL, pressure transducer (Grass Technologies, West Warwick, R.I.) and the arterial pressure transducer and Unisensor urethral transducer catheter were connected to an Gould 13-6615-50 amplifier (Data Sciences International, St. Paul, Minn.) and Gould TA6000 recorder (Data Sciences International, St. Paul, Minn.) in parallel. All data was analyzed using Power Lab Chart version 5.0.2 (ADInstruments, Colorado Springs, Colo.) data acquisition system. […]
Measurements: The change in IUP and MAP from baseline were measured as well as the slope of the IUP response. MAP was first calculated according to the following formula, where Pd is diastolic pressure and Ps is systolic pressure: MAP=Pd+1/3(Ps−Pd). Pre-dose baseline values for IUP and MAP were assessed during a 2 min period just prior to vehicle or test compound administration. Post-dose values for IUP or MAP were determined during a 2 min period at the first peak in the IUP tracing following vehicle or test compound administration. The change in IUP and MAP induced by vehicle or test compound were then calculated by subtracting the pre-dose value from the post-dose value. […]

[2] = system: Female Yucatan Micro-Swine; assay: Conscious pig model: IUP, MAP and HR during infusion; type: in vivo; details: infusion via ear vein for two hours
Experimental: Sling Training: Female Yucatan Micro-Swine were trained to stay in a sling for up to 4 hours. Swine were exposed to progressively longer sling durations per IACUC sling-training guideline.
Surgical Instrumentation: Female Yucatan Micro-swine were instrumented with a telemetry device with both pressure and ECG monitoring capabilities (Data Sciences International St Paul Minn.). In addition, a Bardport low profile titanium VAP was placed subcutanteously for blood sampling. All devices were implanted by the surgical veterinarian at Roche Palo Alto. Briefly, the telemetry probe body was placed subcutaneously in the cervical region. The intra-arterial pressure catheter was advanced via the superficial cervical artery into the subclavian artery for blood pressure measurement. […]
Experiment: After the swine was fully awake and stable (usually approximately 1 hour post wake up), baseline blood pressure, IUP, and heart rate parameters were determined. […]
Data Generating and Analysis Systems: Cardiovascular readings were generated by the TL11M3-D70-PCP (Data Sciences International, St. Paul, Minn.) telemetry device and associated hardware. […] IUP was monitored by a solid state catheter connected to a TA6000 Polygraph (Data Sciences International, St. Paul, Minn.). […]

- intrinsic activity, or efficacy, as a partial agonist (alpha-1A adrenoceptors; ideally between 0.35 to 0.60): 0.38
- EC50 (alpha-1A adrenoceptors; read-out: affinity, or pEC50 value (converted)): 251 nM
- maximum increase in MAP [1]: 9.75 mmHg
SMILES: CS(=O)(=O)Nc1ccc(CC2=NCCN2)c(Br)c1Cl [Formula I, N-[3-Bromo-2-chloro-4-(4,5-dihydro-1H-imidazol-2-ylmethyl)-phenyl]-methanesulfonamide]
- selectivity for enhancement of intraurethral pressure (IUP) over blood pressure (MAP) ([1]; at the 10 mmHg change in IUP level (ED10 of MAP/ED10 of IUP)): 38 fold
- durability of IUP response over time ([1]; slope of IUP response 2-7 minutes post the first peak, top 3 doses): increased durability of IUP response over time
- IUP durability [2]: exceptional IUP durability
